Patent US20220401414A1, “TREATMENT AND PREVENTION OF A NEURODEGENERATIVE DISORDER” (Inflazome Limited, priority 2019, published 2022)

Assay: Study B: blood-brain barrier penetration, striatal MetaQuant microdialysis in unilateral 6-OHDA lesioned mice after oral dosing
Format: in vivo, C57B1/6 mice
Details: 6-OHDA mice; for average peak levels in left and right striatal dialysate: MetaQuant dialysate, not corrected for recovery (recovery 61%); for time of average peak levels after compound administration: striatal dialysate
Protocol: The present study was designed to assess the free concentration of the compound of formula (I) in the left and right striatum of freely-moving adult male mice with a unilateral 6-hydroxydopamine (6-OHDA) lesion.
Adult male C57B1/6 mice (23-28 g; Envigo, the Netherlands) were used for the experiments. Following arrival, animals were housed in groups of 5 in polypropylene cages (40×50×20 cm) with wire mesh top in a temperature (22±2° C.) and humidity (55±15%) controlled environment on a 12 hour light cycle (07.00-19.00). Following surgery, animals were housed individually (cages 30×30×40 cm). Standard diet (SDS Diets, RM1 PL) and domestic quality mains water were available ad libitum.
Mice were anesthetized using isoflurane (2% and 500 mL/min O2). Before surgery, Finadyne (1 mg/kg, s.c.) was administered for analgesia during surgery and the post-surgical recovery period. A mixture of bupivacaine and epinephrine was used for local analgesia of the incision site.
The animals were placed in a stereotaxic frame (Kopf instruments, USA). 10 μg of 6-OHDA in 2 μL saline was slowly injected into the right striatum using a Hamilton needle (coordinates for the tip of the needle: AP=−0.5 mm (to bregma), ML=−2.0 mm (to midline), DV=-4.0 mm (to dura) with an angle of 0° and the incisor bar set at 0.0 mm.
In the same surgical procedure, guides for MetaQuant microdialysis probes with a 3 mm exposed polyacrylonitrile membrane (MQ-PAN 3/3) were implanted bilaterally into the left and right striatum (coordinates for the tip of the probe: AP=+0.8 mm (to bregma), ML=+/−1.7 mm (to midline), DV=−4.0 mm (to dura) with an angle of 0° and the incisor bar set at 0.0 mm. All coordinates were based on “The mouse brain in stereotaxic coordinates” by Paxinos and Franklin (2008). The probes were attached to the skull with a stainless-steel screw and dental cement.
The monosodium salt of the compound of formula (I) was formulated in sterilized tap water at concentrations of 0.2 and 4 mg/mL for oral dosing at 5 mL/kg; 1 mg/kg and 20 mg/kg, respectively.
After recovery from lesion and the guide surgery, on day 10, MetaQuant microdialysis probes were connected with flexible PEEK tubing (Western Analytical Products Inc. USA; PK005-020) to a microperfusion pump (Harvard) and perfused with a slow flow of artificial CSF (perfusate), containing 147 mM NaCl, 3.0 mM KCl, 1.2 mM CaCl2, and 1.2 mM MgCl2, at a flow rate of 0.12 μL/min and a carrier flow of UP+0.02 M FA+0.04% ascorbic acid at 0.8 μL/min. After a minimum of two hours of prestabilisation, microdialysis samples were collected in 60 minute intervals. […]
Levels of the compound of formula (I) in MetaQuant microdialysate samples were quantified by LC-MS/MS. […]

- average peak levels in left and right striatal dialysate (1 mg/kg oral): 17 to 19 nM
- time of average peak levels after compound administration (1 mg/kg oral): 5 h
- average peak levels in left and right striatal dialysate (20 mg/kg oral): 280 to 300 nM
- time of average peak levels after compound administration (20 mg/kg oral): 6 h
Compound: CC(C)n1ccc(S(=O)(=O)NC(=O)Nc2c3c(cc4c2CCC4)CCC3)n1 [compound of formula (I)]
